Measurements published in patent US8703805B2 (Exelixis Patent Company LLC, priority 2005, dated 2014).

Each compound was assayed on LXRα and/or LXRβ (assay: LXR/LXRE co-transfection assay (luciferase reporter, CV-1 cells)). Details: IC50 or EC50 for LXR (LXRα and/or LXRβ, not distinguished), tested as described in Example 109, CV-1 cells.
Assay type: cell-based, human
Text: To measure the ability of compounds to activate or inhibit the transcriptional activity of LXR in a cell based assay, the co-transfection assay was used. It has been shown that LXR functions as a heterodimer with RXR. For the co-transfection assay; expression plasmids for LXR and RXR are introduced via transient transfection into mammalian cells along with a luciferase reporter plasmid that contains one copy of a DNA sequence that is bound by LXR-RXR heterodimers (LXRE; Willy, P. ad. 1995). Treatment of transfected cells with an LXR agonist increases the transcriptional activity of LXR, which is measured by an increase in luciferase activity.
CV-1 African Green Monkey Kidney Cells Co-transfection expression plasmids, comprising full-length LXRα (pCMX-h LXRα, LXRβ (pCMX-hLXRβ), or RXRα (pCMX-RXR), reporter plasmid (LXREx1-Tk-Luciferase), and control (pCMX-Galactosidase expression vector) (Willey et al. Genes & Development 91033-1045 (1995)). Transfection reagent such as FuGENE6 (Roche). 1× Cell lysis buffer (1% Triton X 100 (IT Baker X200-07), 10% Glycerol (JT Baker M778-07), 5 mM Ditriotreitol (Quantum Bioprobe DTT03; add fresh before lysing), 1 mM EGTA (Ethylene Glycol-bis(B-Amino ethyl ether)-N,N,N′,N′-Tetracetic Acid) (Sigma E-4378), 25 mM Tricine (ICN 807420) pH 7.8) 1× Luciferase assay buffer (pH at 7.8) (0.73 mM ATP, 22.3 mM Tricine, 0.11 mM EDTA, 33.3 mM DTT) 1× Luciferrin/CoA (11 mM Luciferin, 3.05 mM Coenzyme A, 10 mM HEPES) Preparation of Screening Reagents
CV-1 cells were prepared 24 hours prior to the experiment by plating them into T-175 flasks or 500 cm^2 dishes in order to achieve 70-80% confluency on the day of the transfection. The number of cells to be transfected was determined by the number of plates to be screened. each 384 well plate requires 1.92×10^6 cells or 5000 cells per well. DNA Transfection Reagent was prepared by mixing the required plasmid DNAs with a cationic lipid transfection reagent FuGENE6 (Roche) by following the instructions provided with the reagents. Optimal DNA amounts were determined empirically per cell line and size of vessel to be transfected. 10-12 mL of media was added to the DNA Transfection Reagent and this mixture was added to the cells after aspirating media from the T175 cm^2 flask. Cells were then incubated at least 5 hours at 37° C. to prepare screening cells.
Luciferase assay reagent was prepared by combining before use (per 10 mL): […], 0.54 mL of 1× Luciferrin/CoA; 0.54 mL of 0.2 M Magnesium sulfate
Assay plates were prepared by dispensing 5 μL of compound per well of a 384 well plate to achieve final compound concentration of 10 μM and no more than 1% DMSO. Media was removed from the screening cells, the cells trypsinized, harvested cells by centrifugation, counted, and plated at a density of approximately 5000 cells per well in the 384 well assay plate prepared above in a volume of about 45 μL. Assay plates containing both compounds and screening cells (50 μL in total volume) were incubated for 20 hours at 37° C.
After incubation with compounds, media was removed from the cells and lysis buffer (30 μL/well) added. After 30 minutes at ambient temperature, luciferase assay buffer (30 μL/well) was added and the assay plates read on a luminometer (PE Biosystems Northstar reader with on-board injectors, or equivalent). Plates were read immediately after addition of luciferase assay buffer.
The LXR/LXRE co-transfection assay can be used to establish the EC50/IC50 values for potency and percent activity or inhibition for efficacy. Efficacy defines the activity of a compound relative to a high control ((N-(3-((4-fluorophenyl)-(naphthalene-2-sulfonyl)amino)propyl)-2,2-dimethylpropionamide)) or a low control (DMSO/vehicle). The dose response curves are generated from an 8 point curve with concentrations differing by ½ LOG units. each point represents the average of 4 wells of data from a 384 well plate. […]

EC50, 1000 to 10000 nM:
CCN(CC)CCN(C)C(=O)c1cc(-c2ccc(-c3cccc(S(C)(=O)=O)c3)s2)n(-c2ccccc2Cl)n1 [Example 1140, 1-(2-chlorophenyl)-N-[2-(diethylamino)ethyl]-N-methyl-5-{5-[3-(methylsulfonyl)phenyl]-2-thienyl}-1H-pyrazole-5-carboxamide]
O=C(NC1CCSC1=O)c1ccc(-c2cc(C(F)(F)F)nn2-c2ccccc2Cl)cc1 (stereo not drawn) [Example 1355, 4-[1-(2-chlorophenyl)-3-(trifluoromethyl)-1H-pyrazol-5-yl]-N-(2-oxotetrahydro-3-thienyl)benzamide]
CS(=O)(=O)c1cc(-c2ccc(-c3cc(C(F)(F)F)nn3-c3cc(Cl)ccc3Cl)s2)ccc1O [Example 1247, 4-{5-[1-(2,5-dichlorophenyl)-3-(trifluoromethyl)-1H-pyrazol-5-yl]-2-thienyl}-2-(methylsulfonyl)phenol]
COC(=O)c1cc(-c2ccccc2Cl)n(-c2ccc(-c3cccc(S(C)(=O)=O)c3)nc2)n1 [Example 1244, methyl 5-(2-chlorophenyl)-1-{6-[3-(methylsulfonyl)phenyl]pyridin-3-yl}-1H-pyrazole-3-carboxylate]
Cc1cc(-c2cc(C(C)(C)O)nn2-c2c(Cl)cccc2Cl)ccc1-c1cccc(S(C)(=O)=O)c1 [Example 1398, 2-(1-(2,6-dichlorophenyl)-5-(2-methyl-3′-(methylsulfonyl)biphenyl-4-yl)-1H-pyrazol-3-yl)propan-2-ol]
COC(=O)c1cc(-c2ccccc2Cl)n(-c2ccc(-c3cccc(S(C)(=O)=O)c3)cn2)n1 [Example 1230, methyl 5-(2-chlorophenyl)-1-{5-[3-(methylsulfonyl)phenyl]pyridin-2-yl}-1H-pyrazole-3-carboxylate]
CN(C)CCNC(=O)c1cccc(-c2ccc(-c3cc(C(C)(C)O)nn3-c3ccccc3Cl)cc2)c1 [Example 1293, 4′-[1-(2-chlorophenyl)-3-(1-hydroxy-methylethyl)-1H-pyrazol-5-yl]-N-[2-(dimethylamino)ethyl]biphenyl-3-carboxamide]
CC(C)(O)c1cccc(-c2ccc(-c3cc(C(F)(F)F)nn3-c3ncccc3C(F)(F)F)s2)c1 [Example 1252, 2-[3-(5-{3-(trifluoromethyl)-1-[3-(trifluoromethyl)pyridin-2-yl]-1H-pyrazol-5-yl}-2-thienyl)phenyl]propan-2-ol]
CC(C)(O)c1cc(-c2cc(-c3cccc(S(C)(=O)=O)c3)co2)n(-c2ccccc2Cl)n1 [Example 1235, 2-[1-(2-chlorophenyl)-5-{4-[3-(methylsulfonyl)phenyl]furan-2-yl}-1H-pyrazol-3-yl]propan-2-ol]
CS(=O)(=O)NC(=O)c1cc(-c2ccc(-c3cccc(S(C)(=O)=O)c3)s2)n(-c2ccccc2C(F)(F)F)n1 [Example 1196, N-(methylsulfonyl)-5-{5-[3-(methylsulfonyl)phenyl]-2-thienyl}-1-[2-(trifluoromethyl)phenyl]-1H-pyrazole-3-carboxamide]
CN(C)CCN(C)C(=O)c1cc(-c2ccc(-c3cccc(S(C)(=O)=O)c3)s2)n(-c2ccccc2Cl)n1 [Example 1144, 1-(2-chlorophenyl)-N-[2-(dimethylamino)ethyl]-N-methyl-5-{5-[3-(methylsulfonyl)phenyl]-2-thienyl}-1H-pyrazole-3-carboxamide]
COC(=O)Cc1ccc(-c2ccc(-c3cc(C(F)(F)F)nn3-c3ncccc3C(F)(F)F)s2)c(C)c1 [Example 1153, methyl [3-methyl-4-(5-{3-(trifluoromethyl)-1-[3-(trifluoromethyl)pyridin-2-yl]-1H-pyrazol-5-yl}-2-thienyl)phenyl]acetate]

EC50, < 1000 nM:
CC(C)(O)c1cc(-c2ccc(-c3cccc(S(C)(=O)=O)c3)s2)n(-c2ccc(F)cc2F)n1 [Example 1265, 2-[1-(2,4-difluorophenyl)-5-{5-[3-(methylsulfonyl)phenyl]-2-thienyl}-1H-pyrazol-3-yl]propan-2-ol]
CC(C)(O)c1cc(-c2ccc(-c3cccc(S(C)(=O)=O)c3)s2)n(-c2ccccc2Br)n1 [Example 1320, 2-[1-(2-bromophenyl)-5-{5-[3-(methylsulfonyl)phenyl]-2-thienyl}-1H-pyrazol-3-yl]propan-2-ol]
Cc1cc(-c2cccc(S(C)(=O)=O)c2)sc1-c1cc(C(C)(C)O)nn1-c1c(Cl)cccc1Cl [Example 137, 2-(1-(2,6-dichlorophenyl)-5-(3-methyl-5-(3-(methylsulfonyl)phenyl)thiophen-2-yl)-1H-pyrazol-3-yl)propan-2-ol]
CC(C)S(=O)(=O)c1cccc(-c2ccc(-c3cc(C(F)(F)F)nn3-c3ccccc3C(F)(F)F)cc2)c1 [Example 1168, 5-{3′-[(1-methylethyl)sulfonyl)biphenyl-4-yl}-3-(trifluoromethyl)-1-[2-(trifluoromethyl)phenyl]-1H-pyrazole]
CC(C)(O)c1nn(-c2ccccc2Br)c(-c2ccc(-c3cccc(S(C)(=O)=O)c3)s2)c1Br [Example 1360, 2-[4-bromo-1-(2-bromophenyl)-5-{5-[3-(methylsulfonyl)phenyl]-2-thienyl}-1H-pyrazol-3-yl]propan-2-ol]
CS(=O)(=O)c1cccc(-c2ccc(-c3cc(C(F)(F)F)nn3-c3c(Cl)cccc3Cl)s2)c1 [Example 1227, 1-(2,6-dichlorophenyl)-5-{5-[3-(methylsulfonyl)phenyl]-2-thienyl}-3-(trifluoromethyl)-1H-pyrazole]
CC(C)(O)c1nn(-c2ccc(-c3cccc(S(C)(=O)=O)c3)cc2Cl)c(-c2cccc(F)c2F)c1Cl [Example 1427, 2-(4-chloro-1-(3-chloro-3′-(methylsulfonyl)biphenyl-4-yl)-5-(2,3-difluorophenyl)-1H-pyrazol-3-yl)propan-2-ol]
Cc1cc(-c2cccc(S(C)(=O)=O)c2)ccc1-c1c(Cl)c(C(C)(C)O)nn1-c1c(Cl)cccc1Cl [Example 1386, 2-(4-chloro-1-(2,6-dichlorophenyl)-5-(3-methyl-3′-(methylsulfonyl)biphenyl-4-yl)-1H-pyrazol-3-yl)propan-2-ol]
CC(C)(O)c1cccc(-c2ccc(-c3cc(C(F)(F)F)nn3-c3ccccc3Cl)s2)c1 [Example 1240, 2-(3-{5-[1-(2-chlorophenyl)-3-(trifluoromethyl)-1H-pyrazol-5-yl]-2-thienyl}phenyl)propan-2-ol]
Cc1cc(-c2cccc(S(C)(=O)=O)c2)ccc1-n1nc(C(C)(C)O)c(Cl)c1-c1ccccc1Cl [Example 1422, 2-(4-chloro-5-(2-chlorophenyol)-1-(3-methyl-3′-(methylsulfonyl)biphenyl-4-yl)-1H-pyrazol-3-yl)propan-2-ol]
CC(C)S(=O)(=O)c1cccc(-c2ccc(-c3cc(C(F)(F)F)nn3-c3ncccc3C(F)(F)F)s2)c1 [Example 1169, 2-[5-(5-{3-[(1-methylethyl)sulfonyl)phenyl}-2-thienyl)-3-(trifluoromethyl)-1H-pyrazol-1-yl]-3-(trifluoromethyl)pyridine]
CC(O)c1cc(-c2ccc(-c3cccc(S(C)(=O)=O)c3)s2)n(-c2ccccc2Cl)n1 (stereo not drawn) [Example 1157, 1-[1-(2-chlorophenyl)-5-{5-[3-(methylsulfonyl)phenyl]-2-thienyl}-1H-pyrazol-3-yl]ethanol]
